# In US20240050407A1, “METHODS FOR DELAY OF EJACULATION IN HUMAN MALES” (priority 2020, published 2024):
# Key:
# Assay type in all cases: in vivo
# [1] = test system: healthy human male subjects; test: Ejaculation latency in healthy human males after pure mesembrine; settings: Subject D, 70 kg; 0.05 mg; Self; nasal spray (in aqueous 1% w/w NaCl)
# [2] = test system: healthy human male subjects; test: as above
# Procedure: Experiments were performed to determine the effects of pure mesembrine on ejaculation in male subjects. 0.5 mg, 1 mg, 2.5 mg, and 5 mg doses of pure mesembrine (Cayman Chemical Company, MI, USA) were administered by oral, nasal or sublingual routes to healthy human male subjects. The formulation for oral (swallowed) and sublingual (held under tongue for 5 minutes) was 2 mg mesembrine/mL 40% aqueous for oral and sublingual. The nasal spray formulation was 0.4 mg mesembrine/mL 1% w/w NaCl saline delivered via metered nasal spray device. Mesembrine was administered 20 minutes prior to sexual activity. The sexual activity was either solo masturbation (“self”) or partnered intercourse with a female partner (“partnered”). Latency time of ejaculation was measured and calculated by time from start of sexual activity to ejaculation. […] In all test cases, ejaculation coincided with orgasm. In all cases where ejaculation was not achieved, orgasm was also not achieved.
# Wistar rats = test: Maximal tolerable dose (MTD) in rats; settings: rat, single IP administration
# [3] = test system: para-chloroamphetamine (PCA)-induced ejaculation model in anaesthetized Wistar rats; test: Rat para-chloroamphetamine (PCA)-induced ejaculation model (ejaculation, latency, seminal vesicle pressure); settings: for Seminal vesicle pressure response vs vehicle, FIG. 10, FIG. 11 / Ejaculation latency vs vehicle, FIG. 9: 20 mg/kg or 10 mg/kg IP 1 h before PCA
# Procedure: Experiments were performed to assess the effect of an acute treatment of alkaloids, mesembrine, mesembrenone, mesembrenol and mesembranol, at their maximal tolerable dose (MTD) on ejaculation latency in a para-chloroamphetamine (PCA)-induced ejaculation model in anaesthetized Wistar rats.
# Adult male Wistar rats (Charles-River, France, 10-11 weeks old) were housed at least 10 days prior to the beginning of the experiments with free access to regular diet and water and maintained on an inversed 12 hour dark/light cycle (9:00/21:00). All procedures were performed in accordance with the legislation on the use of laboratory animals (NIH publication N°85-23, revised 1996) and Animal Care Regulations in force in France as of 1988 (authorization from competent French Ministry of Agriculture—Agreement No. B78-423-1, July 2017).
# Rats received a single administration by intraperitoneal (IP) route of either vehicle, mesembrine, mesembrenone, mesembrenol, or mesembranol 1 hour before the in vivo evaluation of PCA-induced ejaculation as follows:
# Part 1: Rats received a single IP injection of either vehicle control (0.5% hydroxypropyl methylcellulose (HPMC) in sterile water, n=10), mesembrine at 20 mg/kg (n=9), 10 mg/kg (n=11), 2 mg/kg (n=12), 200 μg/kg (n=12) and 20 μg/kg (n=10) 1 hour prior to administration of PCA. Treatment groups for Part I are outlined below in Table 2:
# Part 2: Rats received a single IP injection of mesembrenone at 20 mg/kg (n=10). Treatment groups for Part 2 are outlined in Table 3.
# Part 3: Rats received single IP injection of mesembrenol at 20 mg/kg (n=4) or 10 mg/kg (n=6) or mesembranol at 20 mg/kg (n==6) or 10 mg/kg (n=6). Treatment for Part 3 are outlined in Table 4.
# After treatment administration, the rats underwent an evaluation of their ejaculation function induced by PCA administration. Thus, the expulsion of seminal plug(s) and seminal vesicle pressure (SVP) increase was evaluated. At the end of experimental period, the rats were euthanized by an intracardiac injection of pentobarbital (Eutasol®, Centravet, France).
# Drug Preparation. Alkaloids were diluted to a 100 mg/mL final concentration (stock solution) and mixed by vortex. Then, aliquots per rat were prepared and stored at −20° C. until use. The day of experiment, 1 aliquot per rat was thawed and diluted to the desired concentration. The volume of administration was either 2 mL/kg for the IP administration or 5 mL/kg for the oral gavage, in line with good practice for administration volume in rat.
# Ejaculation was induced by intraperitoneal administration of P-chloroamphetamine (PCA) at 5 mg/kg in anesthetized rats according to previously described methods (Clement el al., Role of peripheral innervation in p-chloroamphetamine-induced ejaculation in anesthetized rats. J Androl 2006; 27:381-389). PCA is an amphetamine derivative that liberates catecholamines and serotonin from monoaminergic nerve terminals. Systemic administration of PCA has been reported to induce ejaculation in both conscious (Humphries et al, 1981; Rènyi, 1985) and anesthetized (Yonezawa et al, 2000) rats.
# Seminal vesicle pressure (SW) was measured as a physiological marker for the emission phase of ejaculation (Clement P, Giuliano F. Physiology and Pharmacology of Ejaculation. Basic Clint Pharmacol Toxicol 201.6 119 Suppl 3:18-25),
# Rats were anesthetized and their temperature maintained at 37° C. using a homoeothermic blanket. The carotid artery was catheterized with polyethylene tubings filled with heparinized saline (50 UI/ml) to record continuously blood pressure (BP) via a pressure transducer (Elcomatic 750, Glasgow, UK). Pressure was recorded using specific data acquisition software (Elphy, CNRS, France).
# For measuring SVP, a suprapubic midline incision was performed to expose seminal vesicles and a polyethylene catheter (0.50 mm), filled with mineral oil, was inserted into one seminal vesicle through the apex and connected to a pressure transducer (Elcomatic 750, Glasgow, UK). […]
# [4] = mesembrine 20 μg/kg single IP 1 h before PCA, 30-min observation
# [5] = mesembrine 200 μg/kg single IP 1 h before PCA, 30-min observation
# [6] = mesembrine 2 mg/kg single IP 1 h before PCA, 30-min observation
# [7] = mesembrine 10 mg/kg single IP 1 h before PCA, 30-min observation
# [8] = mesembrine 20 mg/kg single IP 1 h before PCA, 30-min observation
smiles,measurement,setting,value
"COc1ccc([C@@]23CCC(=O)C[C@@H]2N(C)CC3)cc1OC [Mesembrine, mesembrine]",Qualitative experience,[1],Effects noticed more rapidly than oral dosing.
same,Qualitative experience,"[2]; Subject A, 77 kg, 0.5 mg, Self, sublingual (5 min under tongue)",Orgasm with drug was more intense than average
same,Qualitative experience,"[2]; Subject A, 77 kg, 1 mg, Self, sublingual (5 min under tongue)",Onset after dosing with drug felt at around 9 min;
same,Qualitative experience,"[2]; Subject B, 75 kg, 0.5 mg, Self, oral",Significant lengthening of latency time noticed
same,Qualitative experience,"[2]; Subject C, 100 kg, 0.5 mg, Self, oral",Did not complete ejaculation as an effect of drug.
same,Qualitative experience,"[2]; Subject D, 70 kg, 1 mg, Self, oral",Satisfactory dosing to maintain control and easily
same,Qualitative experience,"[2]; Subject D, 70 kg, 2.5 mg, Partnered, oral",Increased satisfaction from female partner noted.
same,Qualitative experience,"[2]; Subject D, 70 kg, 5 mg, Partnered, oral",Did not complete ejaculation as an effect of drug.
same,ejaculation latency (in words),"[2]; all doses tested, oral, nasal or sublingual, 20 minutes prior to sexual activity",extended the ejaculation latency at all doses tested
same,maximal tolerable dose (MTD),Wistar rats,20 mg/kg (MTD)
same,ejaculation during the 30-minute observation period (in words),[3]; 20 mg/kg IP 1 h before PCA,did not ejaculate
same,rats that did not ejaculate during the 30-min observation period following PCA injection,[3]; 20 mg/kg IP 1 h before PCA,100%
same,"Ejaculation latency (ejaculatory response vs vehicle control), FIG. 3",[3]; all dosage conditions tested (20 μg/kg to 20 mg/kg IP),delayed ejaculatory response
same,"Seminal vesicle pressure response assessed as amplitude and AUC vs vehicle control, FIG. 4, FIG. 5",[3]; all mesembrine treatment cases (20 μg/kg to 20 mg/kg IP),decreased
same,N of ejaculating rats,[3]; [4],9/9
same,N of rats not ejaculating,[3]; [4],0/9
same,Percentage of ejaculating rats,[3]; [4],100%
same,N of ejaculating rats,[3]; [5],10/11
same,N of rats not ejaculating,[3]; [5],1/11
same,Percentage of ejaculating rats,[3]; [5],91%
same,N of ejaculating rats,[3]; [6],4/12
same,N of rats not ejaculating,[3]; [6],8/12
same,Percentage of ejaculating rats,[3]; [6],33%
same,N of ejaculating rats,[3]; [7],7/12
same,N of rats not ejaculating,[3]; [7],5/12
same,Percentage of ejaculating rats,[3]; [7],58%
same,N of ejaculating rats,[3]; [8],0/10
same,N of rats not ejaculating,[3]; [8],10/10
same,Percentage of ejaculating rats,[3]; [8],0%
COc1ccc([C@@]23CC[C@@H](O)C[C@@H]2N(C)CC3)cc1OC [mesembranol],"Seminal vesicle pressure response vs vehicle, FIG. 10, FIG. 11",[3],decreased
same,"Ejaculation latency vs vehicle, FIG. 9",[3]; 30-min observation,delayed ejaculation
COc1ccc([C@@]23C=CC(=O)C[C@@H]2N(C)CC3)cc1OC [mesembrenone],"Seminal vesicle pressure response vs vehicle, FIG. 7, FIG. 8",[3]; 20 mg/kg IP 1 h before PCA,decreased
same,"Ejaculation latency vs vehicle, FIG. 6","[3]; 20 mg/kg IP 1 h before PCA, 30-min observation",delayed ejaculation
COc1ccc(C23C=CC(O)CC2N(C)CC3)cc1OC (centres unmarked) [mesembrenol],"Seminal vesicle pressure response vs vehicle, FIG. 10, FIG. 11",[3],decreased
same,"Ejaculation latency vs vehicle, FIG. 9",[3]; 30-min observation,delayed ejaculation
